Measurements reported in patent publication US10144915B2, “Reprogramming fibroblasts into cardiomyocytes” (The J. David Gladstone Institutes, a testamentary trust …, priority 2013, dated 2018).

Columns and labels:
[1] = system: cardiomyocytes generated from mouse tail tip fibroblasts (TTFs); assay: β-adrenergic and muscarinic stimulation of induced cardiomyocytes (beating, Ca2+ transients); assay type: cell-based; conditions: applied locally
Method: Myocytes were loaded with 5 μM Fluo-4 AM (Molecular Probes, Invitrogen Corp, Carlsbad, Calif.), a Ca^++ indicator dye for 20 minutes at room temperature followed by 20 minutes in dye-free extracellular solution to allow for Fluo-4 de-esterification prior to commencing recordings. Ca^++ transients were recorded via a standard filter set (#49011 ET, Chroma Technology Corp., Bellows Falls, Vt.) and a photomultiplier-based recording system (lonOptix PMT400, Milton, Mass.). Fluorescence was recorded simultaneously from an entire myocyte cluster. Between sampling periods, excitation light was blocked by a shutter (CS35; Vincent Associates, Rochester, N.Y.) and background fluorescence was recorded after removing the cell(s) from the field of view at the end. Where applicable, 1 μM isoproterenol (Iso) or 25 μM carbachol (Cch) were applied locally (to the cell cluster of interest) using a perfusion pencil (AutoMate Scientific, Berkeley, Calif.).
Intact […] nervous system responses to hormones and transmitters are one of the most critical characteristics of normal cardiomyocytes. […] After washing out carbachol, cells resumed contracting and the Ca^2+ transients immediately returned to normal (FIG. 4H).

adenylate cyclase 1 = adenylate cyclase 1 (Homo sapiens, UniProt Q08828); conditions: cited from earlier work
SAPK2/p38 = SAPK2/p38 (Homo sapiens, UniProt Q16539); conditions: CK1 and ALK5 inhibitor versus SAPK2/p38; cited from earlier work
Chain of SAPK2/p38 (Q16539 whole entry): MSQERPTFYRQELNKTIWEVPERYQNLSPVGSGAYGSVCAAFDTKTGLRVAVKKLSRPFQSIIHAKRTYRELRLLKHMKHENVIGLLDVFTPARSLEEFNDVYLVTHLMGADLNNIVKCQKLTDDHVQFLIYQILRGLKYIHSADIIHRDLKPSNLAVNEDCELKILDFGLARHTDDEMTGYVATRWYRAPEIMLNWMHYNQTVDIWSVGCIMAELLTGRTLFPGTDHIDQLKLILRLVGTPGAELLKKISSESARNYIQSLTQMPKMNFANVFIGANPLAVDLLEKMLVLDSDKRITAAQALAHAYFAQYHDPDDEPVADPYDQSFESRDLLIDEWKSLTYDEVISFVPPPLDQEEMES

Chain of adenylate cyclase 1 (Q08828 whole entry): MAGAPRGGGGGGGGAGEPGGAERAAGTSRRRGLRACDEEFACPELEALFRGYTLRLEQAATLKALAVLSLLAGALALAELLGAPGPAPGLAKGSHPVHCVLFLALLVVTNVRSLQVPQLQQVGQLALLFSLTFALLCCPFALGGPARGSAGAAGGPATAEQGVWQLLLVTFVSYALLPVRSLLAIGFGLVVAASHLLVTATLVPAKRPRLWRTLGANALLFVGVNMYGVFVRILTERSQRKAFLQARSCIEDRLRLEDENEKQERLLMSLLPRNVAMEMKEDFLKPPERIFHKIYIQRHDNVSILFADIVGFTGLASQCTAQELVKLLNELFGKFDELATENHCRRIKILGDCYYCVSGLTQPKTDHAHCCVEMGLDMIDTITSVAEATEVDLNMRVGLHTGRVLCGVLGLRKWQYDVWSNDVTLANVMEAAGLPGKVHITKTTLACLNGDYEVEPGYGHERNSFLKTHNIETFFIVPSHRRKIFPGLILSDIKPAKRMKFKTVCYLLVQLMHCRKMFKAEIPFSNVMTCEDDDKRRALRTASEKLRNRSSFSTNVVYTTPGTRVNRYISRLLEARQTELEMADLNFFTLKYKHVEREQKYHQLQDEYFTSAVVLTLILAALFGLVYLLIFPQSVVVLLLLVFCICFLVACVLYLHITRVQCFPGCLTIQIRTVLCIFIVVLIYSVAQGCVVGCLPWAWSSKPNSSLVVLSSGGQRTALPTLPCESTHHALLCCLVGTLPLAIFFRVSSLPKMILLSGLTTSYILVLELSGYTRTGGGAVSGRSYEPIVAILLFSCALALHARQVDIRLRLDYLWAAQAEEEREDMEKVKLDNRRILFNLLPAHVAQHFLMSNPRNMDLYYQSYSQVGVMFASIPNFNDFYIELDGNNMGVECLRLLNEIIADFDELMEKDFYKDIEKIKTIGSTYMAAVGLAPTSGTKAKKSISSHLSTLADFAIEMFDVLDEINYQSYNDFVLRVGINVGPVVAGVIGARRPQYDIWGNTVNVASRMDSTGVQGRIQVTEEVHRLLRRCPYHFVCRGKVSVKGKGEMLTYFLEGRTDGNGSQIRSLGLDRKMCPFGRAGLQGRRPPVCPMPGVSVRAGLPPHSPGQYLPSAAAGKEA

**Q.** For `CC(C)NCC(O)c1ccc(O)c(O)c1` (stereo not shown) [isoproterenol], which “frequency of cell contracting and spontaneous calcium transients” value ([1]; 1 μM) is on record?
**A.** Its value is “significantly increased”.

**Q.** For `C=C[C@@]1(C)CC(=O)[C@]2(O)[C@@]3(C)[C@@H](O)CCC(C)(C)[C@@H]3[C@H](O)[C@H](OC(C)=O)[C@@]2(C)O1` [Forskolin], which IC50 (adenylate cyclase 1) is on record?
**A.** Its IC50 is 0.04 to 0.15 µM.

**Q.** For `NC(=O)c1ccc(-c2nc(-c3ccc4c(c3)OCCO4)c(-c3ccccn3)[nH]2)cc1` [D 4476, 4-[4-(2,3-Dihydro-1,4-benzodioxin-6-yl)-5-(2-pyridinyl)-1H-imidazol-2-yl]benzamide], which “selectivity over SAPK2/p38” value (SAPK2/p38) is on record?
**A.** The value was “greater than 20 fold”.

**Q.** Which “frequency of cell contracting and spontaneous calcium transients” value ([1]; 25 μM, reversible on wash-out) does the source give for `C[N+](C)(C)CCOC(N)=O` [carbachol] here?
**A.** Its value is “opposite effect”.
